This data set has as its system GENE-TOX genotoxicity assays, various organisms and cells. Put plainly: GENE-TOX mutagenicity studies. The note with it: for call: Assay Type: In vivo carcinogenicity studies.
The mark [1] stands for this setting: Species/Cell Type: Salmonella typhimurium (one or more of the five standard strains: TA98, TA100, TA1535, TA1537, and TA1538), Assay Type: Histidine reverse gene mutation, Ames assay, Assay Code: SAL+*, Activation: With metabolic activation, Evaluation Type: Evaluation A (Pre-1980).

The source made the active and inactive calls. No rule for the calls is given here.

Consider `O=c1cc(-c2ccccc2)oc2c1ccc1ccccc12`, for which the mutagenic call runs as follows: (Species/Cell Type: Human lymphocytes, Assay Type: Sister-chromatid exchange (SCE) in vitro, Assay Code: SCL+D, Dose Response: With dose response, Evaluation Type: Evaluation B (Post-1980)) “active; positive”; (Species/Cell Type: Human, Assay Type: Sister-chromatid exchange (SCE) in vitro, Assay Code: SC1+D, Dose Response: With dose response, Evaluation Type: Evaluation B (Post-1980)) “active; positive”; (Species/Cell Type: Human, Assay Type: Sister-chromatid exchange (SCE) in vitro, Assay Code: SC1T, Evaluation Type: Evaluation A (Pre-1980)) “no conclusion”; (Species/Cell Type: Mammalian polychromatic erythrocytes, Assay Type: Micronucleus test, chromosome aberrations, Assay Code: MNTT, Evaluation Type: Evaluation B (Post-1980)) “no conclusion”; (Species/Cell Type: Syrian hamster embryo (SA7/SHE) cells, Assay Type: Cell transformation, viral enhanced, Assay Code: CT7-, Evaluation Type: Evaluation A (Pre-1980)) “inactive; negative”.

On to `Nc1ccccc1-c1ccccc1`, for which the mutagenic call runs as follows: (Species/Cell Type: Escherichia coli polA (W3110 vs P3478), Assay Type: Rec-assay, DNA effects (bacterial DNA repair), Assay Code: RE2-, Evaluation Type: Evaluation A (Pre-1980)) “inactive; negative”; (Species/Cell Type: Escherichia coli polA (W3119 vs P3478), Assay Type: Rec-assay, DNA effects (bacterial DNA repair), Assay Code: RE1T, Evaluation Type: Evaluation A (Pre-1980)) “no conclusion”; (Species/Cell Type: Fischer rat embryo (RLV/1706) cells, Assay Type: Cell transformation, viral enhanced, Assay Code: CTR-, Evaluation Type: Evaluation A (Pre-1980)) “inactive; negative”; (Species/Cell Type: Mouse embryo (AKR/ME) cells, Assay Type: Cell transformation, Assay Code: CTK+, Evaluation Type: Evaluation A (Pre-1980)) “active; positive”; (Species/Cell Type: Nonhuman, Assay Type: Sister-chromatid exchange (SCE) in vivo, Assay Code: SC3T, Evaluation Type: Evaluation B (Post-1980)) “no conclusion”; (Species/Cell Type: Rat primary hepatocytes, Assay Type: Unscheduled DNA synthesis (UDS) in vitro, DNA effects, Assay Code: UDP-, Evaluation Type: Evaluation A (Pre-1980)) “inactive; negative”. Also, the mutagenic call (Species/Cell Type: Saccharomyces cerevisiae, Assay Type: Mitotic recombination or gene conversion, Assay Code: YEH-, Evaluation Type: Evaluation A (Pre-1980)) was “inactive; negative”; the mutagenic call under setting [1] is “active; positive”; the mutagenic call (Species/Cell Type: Salmonella typhimurium, Assay Type: Forward and reverse gene mutation, body fluid assay, Assay Code: BFU-, Evaluation Type: Evaluation A (Pre-1980)) was “inactive; negative”; the mutagenic call (Species/Cell Type: Salmonella typhimurium, Assay Type: Forward and reverse gene mutation, host-mediated assay, Assay Code: HMA-, Evaluation Type: Evaluation A (Pre-1980)) was “inactive; negative”; the mutagenic call (Species/Cell Type: Syrian hamster embryo (SHE) cells, Assay Type: Cell transformation, clonal assay, Assay Code: CTC-, Evaluation Type: Evaluation A (Pre-1980)) was “inactive; negative”. Besides, the call (Species/Cell Type: Nonhuman, Assay Code: CCGT, Evaluation Type: Evaluation A (Pre-1980)) is “no conclusion”.

For the compound `O=C1C(=O)c2ccccc2-c2ccccc21`, the mutagenic call (Species/Cell Type: Allium cepa, Assay Type: Chromosome aberrations, Assay Code: ALC-, Evaluation Type: Evaluation A (Pre-1980)) is “inactive; negative”.

With `CCN(CC)N=O`, the mutagenic call (Species/Cell Type: Chinese hamster lung (V79) cells, Assay Type: Forward gene mutation at the HPRT or ouabain locus, Assay Code: V79+, Evaluation Type: Evaluation A (Pre-1980)) was “active; positive”; the mutagenic call (Species/Cell Type: Chinese hamster ovary (CHO) cells, Assay Type: Forward gene mutation at the HPRT locus, Assay Code: CHO+*, Activation: With metabolic activation, Evaluation Type: Evaluation B (Post-1980)) is “active; positive”; the mutagenic call (Species/Cell Type: Drosophila melanogaster, Assay Type: Sex-linked recessive lethal gene mutation, Assay Code: SRL+, Evaluation Type: Evaluation A (Pre-1980)) is “active; positive”; the mutagenic call (Species/Cell Type: Drosophila melanogaster, Sex: Male, Assay Type: Heritable translocation test, chromosome aberrations, Assay Code: DHTT, Evaluation Type: Evaluation A (Pre-1980)) is on record as “no conclusion”; the mutagenic call (Species/Cell Type: Escherichia coli polA (W3110 vs P3478), Assay Type: Rec-assay, DNA effects (bacterial DNA repair), Assay Code: RE2+, Evaluation Type: Evaluation A (Pre-1980)) is “active; positive”; the mutagenic call (Species/Cell Type: Escherichia coli polA (W3119 vs P3478), Assay Type: Rec-assay, DNA effects (bacterial DNA repair), Assay Code: RE1-, Evaluation Type: Evaluation A (Pre-1980)) is “inactive; negative”. Also, the mutagenic call was “active; positive” (Species/Cell Type: Fischer rat embryo (RLV/1706) cells, Assay Type: Cell transformation, viral enhanced, Assay Code: CTR+, Evaluation Type: Evaluation A (Pre-1980)); “no conclusion” (Species/Cell Type: Human diploid fibroblasts, Assay Type: Unscheduled DNA synthesis (UDS) in vitro, DNA effects, Assay Code: UDHT, Evaluation Type: Evaluation A (Pre-1980)); “active; positive” (Species/Cell Type: Human lymphocytes, Assay Type: Sister-chromatid exchange (SCE) in vitro, Assay Code: SCL+D*, Activation: With metabolic activation, Dose Response: With dose response, Evaluation Type: Evaluation B (Post-1980)); “inactive; negative” (Species/Cell Type: Human lymphocytes, Assay Type: Sister-chromatid exchange (SCE) in vitro, Assay Code: SCL-, Evaluation Type: Evaluation A (Pre-1980)); “active; positive” (Species/Cell Type: Human, Assay Type: Sister-chromatid exchange (SCE) in vitro, Assay Code: SC1+D*, Activation: With metabolic activation, Dose Response: With dose response, Evaluation Type: Evaluation B (Post-1980)); “inactive; negative” (Species/Cell Type: Human, Assay Type: Sister-chromatid exchange (SCE) in vitro, Assay Code: SC1-, Evaluation Type: Evaluation A (Pre-1980)). Also, the mutagenic call by setting is: (Species/Cell Type: Mammalian polychromatic erythrocytes, Assay Type: Micronucleus test, chromosome aberrations, Assay Code: MNTT, Evaluation Type: Evaluation A (Pre-1980)) “no conclusion”; (Species/Cell Type: Mouse germ cells, Sex: Male, Assay Type: Unscheduled DNA synthesis (UDS) in vivo, DNA effects, Assay Code: UDT-, Evaluation Type: Evaluation A (Pre-1980)) “inactive; negative”; (Species/Cell Type: Mouse lymphoma (L5178Y) cells, Assay Type: Forward gene mutation at the thymidine kinase (TK) locus, chromosome aberrations, Assay Code: L51+*, Activation: With metabolic activation, Evaluation Type: Evaluation A (Pre-1980)) “active; positive”; (Species/Cell Type: Mouse, Sex: Female, Assay Type: Spot test, gene mutation, Assay Code: MST-, Evaluation Type: Evaluation A (Pre-1980)) “inactive; negative”; (Species/Cell Type: Mouse, Sex: Male, Assay Type: Specific locus test, gene mutation, Assay Code: SLT-, Evaluation Type: Evaluation A (Pre-1980)) “inactive; negative”; (Species/Cell Type: Neurospora crassa, Assay Type: Forward gene mutation, Assay Code: NEF+, Evaluation Type: Evaluation A (Pre-1980)) “active; positive”. Moreover, the mutagenic call (Species/Cell Type: Neurospora crassa, Assay Type: Reverse gene mutation, Assay Code: NER+, Evaluation Type: Evaluation A (Pre-1980)) is “active; positive”; the mutagenic call (Species/Cell Type: Nonhuman, Assay Type: Chromosome aberrations in vitro, Assay Code: CY&+*, Activation: With metabolic activation, Evaluation Type: Evaluation A (Pre-1980)) was “active; positive”; the mutagenic call (Species/Cell Type: Nonhuman, Assay Type: Sister-chromatid exchange (SCE) in vitro, Assay Code: SC2+D, Dose Response: With dose response, Evaluation Type: Evaluation A (Pre-1980)) was “active; positive”; the mutagenic call (Species/Cell Type: Nonhuman, Assay Type: Sister-chromatid exchange (SCE) in vivo, Assay Code: SC3+, Evaluation Type: Evaluation B (Post-1980)) is “active; positive”; the mutagenic call (Species/Cell Type: Nonhuman, Assay Type: Sister-chromatid exchange (SCE) in vivo, Assay Code: SC3+D, Dose Response: With dose response, Evaluation Type: Evaluation A (Pre-1980)) was “active; positive”; the mutagenic call (Species/Cell Type: Rat primary hepatocytes, Assay Type: Unscheduled DNA synthesis (UDS) in vitro, DNA effects, Assay Code: UDP+, Evaluation Type: Evaluation A (Pre-1980)) was “active; positive”. Further, the mutagenic call was “inactive; negative” (Species/Cell Type: Rodents, Sex: Male, Assay Type: Dominant lethal test, Assay Code: DLT-, Evaluation Type: Evaluation A (Pre-1980)); “active; positive” (Species/Cell Type: Saccharomyces cerevisiae, Assay Type: Forward gene mutation, Assay Code: YEF+*, Activation: With metabolic activation, Evaluation Type: Evaluation A (Pre-1980)); “active; positive” (Species/Cell Type: Saccharomyces cerevisiae, Assay Type: Mitotic recombination or gene conversion, Assay Code: YEH+, Evaluation Type: Evaluation A (Pre-1980)); “active; positive” under setting [1]; “active; positive” (Species/Cell Type: Salmonella typhimurium, Escherichia coli, Serratia marcesens, Chinese hamster lung (V79) cells, Assay Type: Forward and reverse gene mutation, host-mediated assay, Assay Code: HM1+, Evaluation Type: Evaluation A (Pre-1980)); “active; positive” (Species/Cell Type: Syrian hamster embryo (SHE) cells, Assay Type: Cell transformation, clonal assay, Assay Code: CTC+*, Activation: With metabolic activation, Evaluation Type: Evaluation A (Pre-1980)). For the same compound, the call (Species/Cell Type: Nonhuman, Assay Code: CCG+, Evaluation Type: Evaluation A (Pre-1980)) was “active; positive”.

On to `NNc1ccccc1`, for which, for the setting “Species/Cell Type: Mammalian polychromatic erythrocytes, Assay Type: Micronucleus test, chromosome aberrations, Assay Code: MNT+, Evaluation Type: Evaluation B (Post-1980)”, the mutagenic call was “active; positive”.

In the case of `Nc1ncn([C@@H]2O[C@H](CO)[C@@H](O)[C@H]2O)c(=O)n1`, the mutagenic call is “active; positive” (Species/Cell Type: Human lymphocytes, Assay Type: Sister-chromatid exchange (SCE) in vitro, Assay Code: SCL+, Evaluation Type: Evaluation B (Post-1980)); “active; positive” (Species/Cell Type: Human, Assay Type: Sister-chromatid exchange (SCE) in vitro, Assay Code: SC1+, Evaluation Type: Evaluation B (Post-1980)); “active; positive” (Species/Cell Type: Mouse (C3H/10T1/2) cells, Assay Type: Cell transformation, Assay Code: CTH+, Evaluation Type: Evaluation A (Pre-1980)); “active; positive” (Species/Cell Type: Nonhuman, Assay Type: Sister-chromatid exchange (SCE) in vitro, Assay Code: SC2+D, Dose Response: With dose response, Evaluation Type: Evaluation B (Post-1980)). Moreover, the call (Species/Cell Type: Nonhuman, Assay Code: CCG+L, Evaluation Type: Evaluation A (Pre-1980)) is “active; positive”.

With `Nc1ccc(I)cc1`, where the note is “Species/Cell Type: Mouse, Sex: Male, Assay Type: Sperm morphology, Assay Code: SPI-, Evaluation Type: Evaluation A (Pre-1980)”, the mutagenic call was “inactive; negative”.

(Values after PubChem BioAssay AID1259408 (Genetic Toxicology Data Bank (GENE-TOX), 2018).)
